Data from patent publication US20200063108A1, “THREE-DIMENSIONAL TISSUE STRUCTURES” (Dana-Farber Cancer Institute, Inc., priority 2017, published 2020).

Legend:
Assay type in all cases: cell-based
[1] = system: drug-refractory prostate cancer 3-D organoids; experiment: Re-exposure of drug-refractory prostate cancer 3-D organoids to afatinib and vinblastine; conditions: re-exposed to afatinib and vinblastine (100 nM) 5 days after first exposure drug-washout
Method: FIG. 10: Afatinib-refractory and vinblastine-refractory prostate cancer 3-D organoids longitudinally exposed to afatinib and vinblastine (100 nM) 5 days after the first exposure drug-washout.

[2] = system: prostate cancer patient-derived 3-D organoids; experiment: Exposure of prostate cancer patient-derived 3-D organoids to cytotoxic drugs; conditions: 100 nM, 3D conditions with Wnt-stimulator R-spondin, in vitro
Method: FIG. 2. Left: Exposure of prostate cancer patient-derived 3-D organoids, cultured in 3D conditions in the presence of Wnt-stimulator R-spondin, to cytotoxic drugs (100 nM; vinblastine highlighted with red) and validation of vinblastine response in the respective patient-derived xenograft (PDX) model. […] Right: Histological similarities of in-vitro vs. in-vivo drug-refractory malignant foci.
(§1) Viability is determined by methods known in the art. A preferred method to determine cell viability is the measurement of bioluminescence in cells stably transfected with the luciferase expression vector upon addition of the luciferase substrate. An alternative method to determine cell viability is the measurement of fluorescence in cells stably transfected with the expression vectors of fluorescent protein (e.g. GFP or RFP). Alternatively, the cell viability can be measured by ATP-based assays; for example the Cell-Titer Glow assay. Alternatively, the cell viability can be measured by colorimetric assays, for example the MTT assay. Alternatively, cell viability can be measured by conventional or automated microscopy methods as determined by the size and shape of the cancer organoids. Alternatively, cell viability can be measured by assays measuring mitochondrial function such as the BH3 profiling assay. […]

[3] = system: breast cancer patient-derived 3-D organoids; experiment: Regrowth of breast cancer patient-derived 3-D organoids after docetaxel washout; conditions: 100 nM for 10 days, then 8 weeks after washout
Method: FIG. 11: Breast cancer patient-derived 3-D organoids treated with DMSO-control (left) or 100 nM Docetaxel (center) for 10 days, and 8 weeks after docetaxel washout (right).

[4] = system: MDA-MB-231 2-D cultures; experiment: Longitudinal exposure of MDA-MB-231 2-D cultures to cytotoxic drugs; conditions: 100 nM, 2D culture
Method: (§2) FIG. 1: Right: Longitudinal exposure of MDA-MB-231 3-D organoids and 2-D cultures to cytotoxic drugs (100 nM). […] Left: H&E staining of day-15 drug-refractory MDA-MB-231 organoids and respective control.
as §1

[5] = system: MDA-MB-231 3-D organoids; experiment: Longitudinal exposure of MDA-MB-231 3-D organoids to cytotoxic drugs; conditions: 100 nM, 3D culture spheroids
Method: as §2, §1

Row | SMILES | cross-resistance of organoids refractory to the named drug [1] | cell viability curve [2] | regrowth of drug-refractory organoids after drug washout [3] | cell killing (viability curve) [4] | cell killing (viability curve) [5]
1 | CC[C@]1(O)C[C@@H]2CN(CCc3c([nH]c4ccccc34)[C@@](C(=O)OC)(c3cc4c(cc3OC)N(C)[C@H]3[C@@](O)(C(=O)OC)[C@H](OC(C)=O)[C@]5(CC)C=CCN6CC[C@]43[C@@H]65)C2)C1 [vinblastine] | cross-resistance | cell viability curve plateauing |  |  | 
2 | CC(=O)O[C@@]12CO[C@@H]1C[C@H](O)[C@@]1(C)C(=O)[C@H](O)C3=C(C)[C@@H](OC(=O)[C@H](O)[C@@H](NC(=O)OC(C)(C)C)c4ccccc4)C[C@@](O)([C@@H](OC(=O)c4ccccc4)[C@H]21)C3(C)C [docetaxel] |  |  | ability of drug-refractory organoid to regenerate fully-grown organoids | kills virtually all the cells | only a fraction of the cells
